Where two headings read alike, the source gives them in different places.
Test: Whole plasma pharmacokinetics in dogs (HPLC)
Format: in vivo, dog
Description: Br. J. Cancer (1984), 50, 291-303 Preclinical pharmacokinetics of benznidazole P. Workman', R.A.S. White2, M.I. Walton', L.N. Owen2* & P.R. Twentyman' 1MRC Clinical Oncology and Radiotherapeutics Unit, MRC Centre, Hills Road, Cambridge CB2 2QH, and 2Department of Clinical Veterinary Medicine, University of Cambridge, Madingley Road, Cambridge CB3 OES, UK. […] We have investigated the detailed pharmacokinetics of benznidazole in mice, dogs and sheep to provide a data base for the estimation of doses required for chemosensitization in man. Pharmacokinetic behaviour was linear except at high doses in mice. Absorption was fairly rapid and bioavailability was complete following both i.p. administration in mice and oral administration in dogs. Elimination t4 values were longer than for MISO, being 90 min in mice, 4-5 h in sheep and 9-11 h in dogs. At doses giving linear kinetics, peak whole plasma concentrations per administered mgkg-1 were 0.75 jigml-1 for the i.p. route in mice and 1.8jugmlP' for the oral route in dogs. Though between 39 and 59% of plasma benznidazole was bound to protein, tissue penetration was generally good. Tissue/whole plasma ratios ranged from 59-99% for transplantable mouse tumours and from 14-70% for spontaneous dog neoplasms. Nervous tissue penetration was similar to that in tumours: brain/whole plasma ratios averaged between 61 and 76% in mice and 42% in dogs, while peripheral nerve/whole plasma ratios in dogs averaged 74%. Mean liver/whole plasma ratios were 42% and 71% in BALB/c and C3H/He mouse strains respectively. Only -5% of the administered dose was excreted unchanged in the urine, indicating the likelihood of extensive metabolism. […] Enhancement of CCNU response is likely to require circulating benznidazole concentrations of 10-30 pgml-1 and we predict that these will be obtained with oral doses of 6-20 mgkg- 1 in man. […] This enhancement, or chemosensitization, is usually greater than that seen in dose-limiting normal tissues, resulting in an improved therapeutic index. Because of the relatively high doses of MISO usually required for chemosensitization in mice (see above refs), and also because of its neurotoxicity in man (Dische et al., 1977), we have been interested in finding an improved chemosensitizer. […] The lipophilic ana- logue benznidazole (N-benzyl-(2-nitroimidazolyl) acetamide, Ro 07-1051; Radanil; Roche), the structure of which is shown in Figure 1, was selected for detailed study because of its ability to *Present address: Animal Health Trust, Small Animals Centre, Lanwades Park, Kennett, Newmarket, Suffolk CB8 7PN, UK. Correspondence: P. Workman. […] These findings have been confirmed independently by Siemann et al. (1983). Although benznidazole is used quite widely in South America to treat patients with the trypanosomal infection Chagas' disease or with mucotaneous Leishmaniasis (Barclay et al., 1978; Cerisola et al., 1978; Coura et al., 1978; Fava et al., 1978), apart from our preliminary studies (White et al., 1982) the only published data on its pharmaco- kinetics are for human plasma concentrations measured by polarography (Raaflub & Ziegler, 1979; Raaflub, 1980). Here we describe the pharmacokinetics of benznidazole in the mouse, sheep and dog, as determined by high-performance liquid chromatography (HPLC). […] The Macmillan Press Ltd., 1984 292 P. WORKMAN et al. particularly on plasma and tumour concentrations, have been used as a basis for the estimation of the benznidazole doses required in a Phase I trial of benznidazole plus CCNU, at present ongoing in our Unit. Materials and methods Animals and tumours Adult inbred male BALB/c mice were obtained from OLAC (Southern) Ltd. (Bicester, UK) and adult inbred C3H/He mice of both sexes from OLAC and our own breeding colony. Mice were housed in plastic cages on sawdust bedding made from soft white woods, and allowed laboratory chow and water ad lib. They were used at 20-35 g body wt.

[1] = collie crossbred, dog, plasma, iv, 5 mg/kg, dog C, 5 mg kg-1 i.v.
[2] = collie crossbred, dog, plasma, iv, 5 mg/kg, dog D, 5 mg kg-1 i.v.
[3] = dog A, collie crossbred 18 kg, 25 mg kg-1 oral
[4] = dog B, collie crossbred 28 kg, 25 mg kg-1 oral

AUC(0-inf) (beagle, dog, plasma, po, 50 mg/kg, dog E, 50 mg kg-1 oral): 760 µg·h/mL
half-life (beagle, dog, plasma, po, 50 mg/kg, dog E, 50 mg kg-1 oral, 95% confidence limits 5.3-6.1, read-out: elimination half-life t1/2β (converted)): 5.7 h
AUC(0-inf) (beagle, dog, plasma, po, 50 mg/kg, dog F, 50 mg kg-1 oral): 707 µg·h/mL
half-life (beagle, dog, plasma, po, 50 mg/kg, dog F, 50 mg kg-1 oral, 95% confidence limits 6.4-7.3, read-out: elimination half-life t1/2β (converted)): 6.8 h
Tmax (collie crossbred, beagle, dog, plasma, dogs, oral administration, usual range, read-out: time to peak plasma concentration): 1 to 5 h
Vd (collie crossbred, dog, plasma ultrafiltrate (unbound drug), iv, 5 mg/kg, dog C, 5 mg kg-1 i.v., read-out: volume of distribution (Vd area), unbound drug data): 2.05 L/kg
Vd (collie crossbred, dog, plasma ultrafiltrate (unbound drug), iv, 5 mg/kg, dog D, 5 mg kg-1 i.v., read-out: volume of distribution (Vd area), unbound drug data): 1.87 L/kg
half-life (collie crossbred, dog, plasma, dogs (large crossbred), summary value, read-out: elimination t1/2): 9 to 11 h
AUC(0-inf) [1]: 105 µg·h/mL
clearance [1]: 0.793 mL/min/kg
half-life (collie crossbred, dog, plasma, iv, 5 mg/kg, dog C, 5 mg kg-1 i.v., 95% confidence limits 7.1-8.1, read-out: elimination half-life t1/2β (converted)): 7.6 h
Vd (collie crossbred, dog, plasma, iv, 5 mg/kg, dog C, 5 mg kg-1 i.v., read-out: volume of distribution (Vd area), total plasma data): 0.52 L/kg
AUC(0-inf) [2]: 138 µg·h/mL
clearance [2]: 0.603 mL/min/kg
half-life (collie crossbred, dog, plasma, iv, 5 mg/kg, dog D, 5 mg kg-1 i.v., 95% confidence limits 9.2-11.4, read-out: elimination half-life t1/2β (converted)): 10.2 h
Vd (collie crossbred, dog, plasma, iv, 5 mg/kg, dog D, 5 mg kg-1 i.v., read-out: volume of distribution (Vd area), total plasma data): 0.53 L/kg
half-life (collie crossbred, dog, plasma, iv, 5 mg/kg, dogs C and D, 5 mg kg-1 i.v., read-out: distribution phase half-life t1/2α (estimated by back-stripping, about)): 0.167 to 0.417 h
AUC(0-inf) (collie crossbred, dog, plasma, po, 12.5 mg/kg, dog C, 12.5 mg kg-1 oral): 419 µg·h/mL
half-life (collie crossbred, dog, plasma, po, 12.5 mg/kg, dog C, 12.5 mg kg-1 oral, 95% confidence limits 9.7-13.3, read-out: elimination half-life t1/2β (converted)): 11.2 h
AUC(0-inf) (collie crossbred, dog, plasma, po, 12.5 mg/kg, dog D, 12.5 mg kg-1 oral): 450 µg·h/mL
half-life (collie crossbred, dog, plasma, po, 12.5 mg/kg, dog D, 12.5 mg kg-1 oral, 95% confidence limits 17.3-22.0, read-out: elimination half-life t1/2β (apparent) (converted)): 19.4 h
AUC(0-inf) (collie crossbred, dog, plasma, po, 25 mg/kg, dog A, 25 mg kg-1 oral, samples collected up to 9 h only): ~800 µg·h/mL
AUC(0-inf) (collie crossbred, dog, plasma, po, 25 mg/kg, dog B, 25 mg kg-1 oral, samples collected up to 9 h only): ~800 µg·h/mL
AUC(0-inf) (collie crossbred, dog, plasma, po, 25 mg/kg, dog C, 25 mg kg-1 oral): 687 µg·h/mL
half-life (collie crossbred, dog, plasma, po, 25 mg/kg, dog C, 25 mg kg-1 oral, 95% confidence limits 8.9-10.6, read-out: elimination half-life t1/2β (converted)): 9.7 h
AUC(0-inf) (collie crossbred, dog, plasma, po, 25 mg/kg, dog D, 25 mg kg-1 oral): 804 µg·h/mL
half-life (collie crossbred, dog, plasma, po, 25 mg/kg, dog D, 25 mg kg-1 oral, 95% confidence limits 8.9-10.6, read-out: elimination half-life t1/2β (converted)): 9.7 h
half-life (collie crossbred, dog, plasma, po, larger crossbred dogs, oral administration, read-out: elimination t1/2, range): 9.5 to 11.2 h
peak time [3]: 5 h
peak whole plasma concentration [3]: 48.4 µg/mL
peak time [4]: 3 h
peak whole plasma concentration [4]: 52.2 µg/mL
peak time (dog C, 5 mg kg-1 i.v.): 0.083 h
peak time (dog C, 12.5 mg kg-1 oral): 1 h
peak time (dog C, 25 mg kg-1 oral): 5 h
peak whole plasma concentration (dog C, collie crossbred 28 kg, 5 mg kg-1 i.v.): 12.7 µg/mL
peak whole plasma concentration (dog C, collie crossbred 28 kg, 12.5 mg kg-1 oral): 26.5 µg/mL
peak whole plasma concentration (dog C, collie crossbred 28 kg, 25 mg kg-1 oral): 38.9 µg/mL
peak time (dog D, 5 mg kg-1 i.v.): 0.083 h
peak time (dog D, 12.5 mg kg-1 oral): 12 h
peak time (dog D, 25 mg kg-1 oral): 3 h
Compound: O=C(Cn1ccnc1[N+](=O)[O-])NCc1ccccc1 [benznidazole, N-benzyl-(2-nitroimidazolyl) acetamide]
